The record followed here is PMC9750872, “Ras-mutant cancers are sensitive to small molecule inhibition of V-type ATPases in mice” (Nature biotechnology, 2022).

“Also recorded” adds a separate entry of the source.

One series deals with T1, Yeast V-ATPase (Saccharomyces cerevisiae, UniProt P25515+P41807).
T1 construct: V-ATPase was purified as described previously from yeast[82] using the detergent dodecylmaltoside; endogenous in cells; host or cells: yeast
Description: Biochemical V-ATPase (ATP hydrolysis) assay. Here is the method: V-ATPase was purified as described previously from yeast[82] using the detergent dodecylmaltoside and porcine kidney[83] using the detergent glycol-diosgenin. ATPase assays with purified V-ATPase were performed as described previously. 249C (mammalian: 0.1, 1, 10, 100 μM and yeast: 5, 10 and 100 μM) or BafA1 (1 μM) were added to the reaction and compared with a negative control to which only DMSO was added. Enzyme-coupled ATPase biochemical activity assays were performed in a 96-well plate as described previously. […]
appears to cause accumulation of high molecular weight entities. Representative of 3 independent experiments. […]
observed. Data shown are mean ± SD ( n = 3) Two-tailed student’s t-test (C) ATP-dependent fluorescence quenching in yeast (me an ± SD; n = 3 ) Two-t ailed student’s t-test (D) SDS PAGE over th e cou rse of recombinant human ATP6V1H protein purification. 1. Mark ers; 2. Total l ysate (GST-fusion […]); 3. Soluble lysate; 4.
GSTrap flow-through; 5. GSTrap elute; 6. Post thrombin cleavage (target 54 kDa, GST 25 kDa); 7. Subtractive GSTrap flow -through; 8. Markers; 9. Final sample, 1 µg protein load. Repres entative of 2 independent ex periments. (E) Structure of biotin- 249C. […]
interfere with V-ATPas e binding. ( F) Experimental schematic of Bio-la yer inferometr y (B L I) .
(1 picture or pasted object on this page, not shown here)

Series [1] deals with T2, mammalian V-ATPase purified from pig kidneys (Sus scrofa, UniProt Q9TVC1).
T2 construct: the entire V-ATPase complex (800 kDa) was purified as described previously from porcine kidneys; from tissue; host or cells: porcine kidney
T2 sequence (Q9TVC1 whole entry): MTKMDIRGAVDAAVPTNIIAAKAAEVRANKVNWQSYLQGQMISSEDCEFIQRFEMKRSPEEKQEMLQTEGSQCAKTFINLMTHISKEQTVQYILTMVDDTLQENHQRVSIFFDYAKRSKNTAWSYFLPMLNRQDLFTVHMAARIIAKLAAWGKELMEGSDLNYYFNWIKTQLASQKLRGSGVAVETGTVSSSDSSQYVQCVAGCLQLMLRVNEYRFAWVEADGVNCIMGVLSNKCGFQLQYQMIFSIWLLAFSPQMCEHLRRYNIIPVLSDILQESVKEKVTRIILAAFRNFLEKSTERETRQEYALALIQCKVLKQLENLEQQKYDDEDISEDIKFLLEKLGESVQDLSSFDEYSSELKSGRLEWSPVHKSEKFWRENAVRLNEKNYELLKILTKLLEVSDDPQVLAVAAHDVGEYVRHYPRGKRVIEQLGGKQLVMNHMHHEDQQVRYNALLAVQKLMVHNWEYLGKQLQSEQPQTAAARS
T2 sequence (Q29048 whole entry partner): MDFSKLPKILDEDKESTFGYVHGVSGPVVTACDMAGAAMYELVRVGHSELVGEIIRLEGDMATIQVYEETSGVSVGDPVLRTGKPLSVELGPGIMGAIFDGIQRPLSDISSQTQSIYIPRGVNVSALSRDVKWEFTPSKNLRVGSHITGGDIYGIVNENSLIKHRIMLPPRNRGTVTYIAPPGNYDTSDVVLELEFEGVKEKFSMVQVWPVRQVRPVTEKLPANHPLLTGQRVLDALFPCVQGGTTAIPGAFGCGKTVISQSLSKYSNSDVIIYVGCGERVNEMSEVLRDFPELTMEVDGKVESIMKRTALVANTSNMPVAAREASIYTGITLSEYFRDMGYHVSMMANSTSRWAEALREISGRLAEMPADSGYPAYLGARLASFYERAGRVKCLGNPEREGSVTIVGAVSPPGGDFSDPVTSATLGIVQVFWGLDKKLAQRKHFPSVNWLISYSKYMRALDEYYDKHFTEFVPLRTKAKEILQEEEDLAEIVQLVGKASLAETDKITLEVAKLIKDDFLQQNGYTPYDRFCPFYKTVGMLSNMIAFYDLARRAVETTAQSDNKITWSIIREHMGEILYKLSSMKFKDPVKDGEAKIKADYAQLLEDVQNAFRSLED
The experiment in a line: Biochemical V-ATPase (ATP hydrolysis) assay. The conditions noted are these: concentrations as low as 1 μM. As to the method:
V-ATPase was purified as described previously from yeast[82] using the detergent dodecylmaltoside and porcine kidney[83] using the detergent glycol-diosgenin. ATPase assays with purified V-ATPase were performed as described previously. 249C (mammalian: 0.1, 1, 10, 100 μM and yeast: 5, 10 and 100 μM) or BafA1 (1 μM) were added to the reaction and compared with a negative control to which only DMSO was added. Enzyme-coupled ATPase biochemical activity assays were performed in a 96-well plate as described previously.

For series [2], the system named is V-ATPase-dependent proton transport in HEK293T cells. The experiment in a line: Proton pumping assay, FITC-Dextran-loaded lysosomes. The class given is cell-based, human. As to conditions: 1 h treatment, listed as BafA1. The source says: Figure 4. […] (A) Model of the reversible assembly of V-ATPase. Cytosolic V1 subunits are depicted in blue and membrane Vo subunits in purple. Upon V-ATPase assembly, ATP is hydrolyzed to ADP accompanied by proton (H^+) pumping and luminal acidification (decrease in pH) (Created with BioRender). […] The amount of subunit B2 present in the membrane fraction indicates the amount of assembled V-ATPase. A representative Western blot is presented. […] Cells were mechanically lysed, and a fraction containing FITC-Dextran-loaded lysosomes was isolated by sedimentation centrifugation. Fluorescence was measured over time to assess pH-dependent quenching following addition of 1 mM magnesium-ATP (predetermined). […] Representative of 5 individual experiments with n = 3 for each is presented (mean ± SD) (D) Mammalian V-ATPase activity measured in the absence and presence of 1 μM 249C and 1 μM BafA1. Data shown are mean ± SD; n = 3. […]
4 × 10^6 HEK 293T cells were plated in 10-cm plates. […] Sample fluorescence was excited at 490 nm, and emission fluorescence at 520 nm was measured continuously in BioTek plate reader (Synergy) using Gen5 software (version 3.05). After initial fluorescence stabilization, 1 mM ATP and 2 mM MgCl2 were added to initiate ATPase activity and proton pumping into the lysosomes, which causes quenching of FITC in the lysosomal lumen. […]

The target of series [3] is T3, hERG (Homo sapiens, UniProt Q12809). Description: hERG fluorescence polarization assay. As to conditions: human. In general terms: The hERG channel carries a current that helps repolarise heart muscle cells.
T3 sequence (Q12809 whole entry): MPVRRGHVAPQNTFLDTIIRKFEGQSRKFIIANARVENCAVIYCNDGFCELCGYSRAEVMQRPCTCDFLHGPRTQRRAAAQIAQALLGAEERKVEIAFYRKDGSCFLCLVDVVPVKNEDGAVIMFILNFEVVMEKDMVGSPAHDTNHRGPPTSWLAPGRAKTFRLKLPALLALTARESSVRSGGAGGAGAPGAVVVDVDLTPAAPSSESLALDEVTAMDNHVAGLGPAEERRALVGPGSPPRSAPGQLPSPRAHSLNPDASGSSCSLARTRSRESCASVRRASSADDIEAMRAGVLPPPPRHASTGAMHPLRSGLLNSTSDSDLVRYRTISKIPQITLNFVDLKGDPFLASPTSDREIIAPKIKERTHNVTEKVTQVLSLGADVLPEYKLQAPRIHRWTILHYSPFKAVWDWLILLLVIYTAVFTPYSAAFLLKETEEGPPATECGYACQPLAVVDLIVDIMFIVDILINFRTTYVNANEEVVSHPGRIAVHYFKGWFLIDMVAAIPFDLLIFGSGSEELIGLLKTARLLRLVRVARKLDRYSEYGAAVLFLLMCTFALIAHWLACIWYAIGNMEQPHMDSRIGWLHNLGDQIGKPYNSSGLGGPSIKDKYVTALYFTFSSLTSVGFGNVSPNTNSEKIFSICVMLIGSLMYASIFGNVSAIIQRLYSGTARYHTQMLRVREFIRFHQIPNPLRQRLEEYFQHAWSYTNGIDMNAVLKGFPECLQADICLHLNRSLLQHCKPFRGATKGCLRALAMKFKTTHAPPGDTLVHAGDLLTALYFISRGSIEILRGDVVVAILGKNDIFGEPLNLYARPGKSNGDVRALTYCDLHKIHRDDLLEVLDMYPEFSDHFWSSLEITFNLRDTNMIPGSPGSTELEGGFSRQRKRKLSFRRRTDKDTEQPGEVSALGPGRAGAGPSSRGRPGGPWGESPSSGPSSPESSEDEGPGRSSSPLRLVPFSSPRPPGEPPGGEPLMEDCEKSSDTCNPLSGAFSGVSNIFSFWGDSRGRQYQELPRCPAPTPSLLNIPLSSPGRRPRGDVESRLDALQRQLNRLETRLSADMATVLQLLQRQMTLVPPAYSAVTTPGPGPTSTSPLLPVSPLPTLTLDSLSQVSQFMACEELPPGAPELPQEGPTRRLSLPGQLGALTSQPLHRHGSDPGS
A further series relates to human primary cells. Description: BioMAP Safety and Toxicology screening profile. The series is classed as cell-based. As to the method: The BioMAP Toxicity Screening Profile was performed as described previously.
The target of series [4] is human ether-à-go-go-related gene (hERG) (Homo sapiens, UniProt Q12809). The experiment in a line: hERG fluorescence polarization assay. As to conditions: at 30 μM.
Sequence of human ether-à-go-go-related gene (hERG) (Q12809 whole entry): as above
The target in series [5] is T3, hERG. Description: in vitro.

T1 sequence (P25515 whole entry): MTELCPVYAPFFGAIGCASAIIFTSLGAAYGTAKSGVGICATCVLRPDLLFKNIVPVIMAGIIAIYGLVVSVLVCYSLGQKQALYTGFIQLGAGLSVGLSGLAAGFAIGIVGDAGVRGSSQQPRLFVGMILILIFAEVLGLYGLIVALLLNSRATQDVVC
T1 sequence (P41807 2-478): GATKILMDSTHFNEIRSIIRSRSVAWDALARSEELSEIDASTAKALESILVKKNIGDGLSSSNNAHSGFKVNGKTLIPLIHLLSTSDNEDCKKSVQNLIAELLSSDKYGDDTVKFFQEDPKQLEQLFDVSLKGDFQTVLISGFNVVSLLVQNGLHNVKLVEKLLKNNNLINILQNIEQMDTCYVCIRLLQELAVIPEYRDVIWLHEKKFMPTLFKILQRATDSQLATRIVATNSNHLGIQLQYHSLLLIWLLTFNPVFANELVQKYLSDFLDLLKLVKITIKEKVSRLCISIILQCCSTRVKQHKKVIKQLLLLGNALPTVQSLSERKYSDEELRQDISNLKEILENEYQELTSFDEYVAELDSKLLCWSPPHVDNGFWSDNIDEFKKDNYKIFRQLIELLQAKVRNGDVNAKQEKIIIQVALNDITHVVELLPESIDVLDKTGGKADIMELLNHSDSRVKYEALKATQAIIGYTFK

With `CO/C1=C\C(C)=C\[C@@H](C)[C@@H](O)[C@@H](C)C/C(C)=C/C=C/[C@H](OC)[C@@H]([C@@H](C)[C@@H](O)[C@H](C)[C@@]2(O)C[C@@H](O)[C@H](C)[C@@H](C(C)C)O2)OC1=O` [Bafilomycin A1, reference compound], at Yeast V-ATPase, the “Yeast V-ATPase activity” value was “modest inhibition”. For the same molecule, the “ATP hydrolysis of intact mammalian V-ATPase” value in series [1] was “blocked ATP hydrolysis”. Further, in series [2], the “V-ATPase-dependent proton transport (ATP-dependent fluorescence quenching)” value was “inhibited V-ATPase-dependent proton transport; also recorded: ATP-dependent fluorescence quenching was not observed”. The same molecule yielded an inhibition at 30 µM at hERG [3] of 35%. Also, the “toxicity categories / adverse events in BioMAP safety profiling” value with human primary cells (over 100 biomarker readouts) is given as 2.

With `CN(CCCCCCNc1ccnc2cc(Cl)ccc12)CCCCCCNc1ccnc2cc(Cl)ccc12` [DC661], in series [4], the “Percent inhibition of hERG” value is 100%.

Take `CCN(CCO)CCCC(C)Nc1ccnc2cc(Cl)ccc12` (stereo not shown) [HCQ, hydroxychloroquine]: in the series with human primary cells (human, 1000 nM), the “BioMAP Screening Profile 3C:SRB” value came to 0, the “BioMAP Screening Profile 4H:SRB” value stood at 0, the “BioMAP Screening Profile BE3C:SRB” value is given as 0 and the “BioMAP Screening Profile BF4T:SRB” value is reported as 0. In the series on human primary cells (human, 1000 nM), the “BioMAP Screening Profile BT:PBMC Cytotoxicity” value is 0, the “BioMAP Screening Profile CASM3C:SRB” value is listed as 0, the “BioMAP Screening Profile Cytotoxicity” value was determined as 0 and the “BioMAP Screening Profile HDF3CGF:SRB” value turned out to be 0. Also, in the series on human primary cells (human, 1000 nM), the “BioMAP Screening Profile KF3CT:SRB” value is reported as 0, the “BioMAP Screening Profile LPS:SRB” value is recorded as 0, the “BioMAP Screening Profile MyoF:SRB” value is reported as 0 and the “BioMAP Screening Profile SAg:PBMC Cytotoxicity” value was determined as 0. For the same molecule, in the series with human primary cells (human, 1000 nM), the “BioMAP Screening Profile SAg:SRB” value is listed as 0, the “BioMAP Screening Profile lMphg:SRB” value stood at 0 and the “BioMAP Screening Profile lMphg:SRB-Mphg” value turned out to be 0. Moreover, the inhibition at 30 µM against hERG [5] was roughly 60%.

As usually defined, the inhibition is the relative decrease from the control value, in per cent. A low value points to little suppression.
